Calls of active or inactive are those of the source.
Legend:
[1] = target: T1, Tyrosyl-DNA phosphodiesterase 2 (Homo sapiens, UniProt O95551); assay: potency against TDP2 phosphodiesterase activity – biochemical, epi absorbance, IC50, dose response (AID 743297)
T1 sequence (O95551 whole entry): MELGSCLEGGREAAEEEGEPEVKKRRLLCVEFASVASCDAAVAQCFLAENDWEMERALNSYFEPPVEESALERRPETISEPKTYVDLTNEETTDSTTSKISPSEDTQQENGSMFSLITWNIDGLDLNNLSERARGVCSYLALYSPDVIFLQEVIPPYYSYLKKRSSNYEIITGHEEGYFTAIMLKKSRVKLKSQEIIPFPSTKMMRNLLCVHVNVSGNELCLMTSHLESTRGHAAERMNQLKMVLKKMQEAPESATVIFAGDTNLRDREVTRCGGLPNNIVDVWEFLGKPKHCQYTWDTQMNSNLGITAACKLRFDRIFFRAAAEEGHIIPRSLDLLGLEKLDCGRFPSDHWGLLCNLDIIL

[2] = target: T2, Dual specificity protein phosphatase 3 (Homo sapiens, UniProt P51452); assay: VHR phosphatase inhibition, dose response, selectivity assay for STEP inhibitor project, biochemical (AID 602374); format: functional; conditions: read-out: IC50_Mean
T2 sequence (P51452 whole entry, the tested form may be a part): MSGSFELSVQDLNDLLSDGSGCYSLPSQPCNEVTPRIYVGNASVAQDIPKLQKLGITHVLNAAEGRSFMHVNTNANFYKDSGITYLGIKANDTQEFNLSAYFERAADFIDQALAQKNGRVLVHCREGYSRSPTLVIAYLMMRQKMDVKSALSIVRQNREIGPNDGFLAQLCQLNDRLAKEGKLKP

[3] = target: T3, Carboxy-terminal domain RNA polymerase II polypeptide A small phosphatase 1 (Homo sapiens, UniProt Q9GZU7); assay: CTDSP1 inhibitors, concentration-response, biochemical, absorbance readout, ultra-high-throughput screen actives (AID 540297); format: functional
T3 sequence (Q9GZU7 whole entry): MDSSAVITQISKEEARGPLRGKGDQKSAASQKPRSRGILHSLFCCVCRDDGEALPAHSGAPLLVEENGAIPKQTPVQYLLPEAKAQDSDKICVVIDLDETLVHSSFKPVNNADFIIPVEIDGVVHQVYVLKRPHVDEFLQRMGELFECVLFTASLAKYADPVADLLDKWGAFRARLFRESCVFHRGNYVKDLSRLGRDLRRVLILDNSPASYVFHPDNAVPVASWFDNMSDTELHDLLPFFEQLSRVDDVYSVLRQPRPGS

Prothrombin = Prothrombin (Bos taurus, UniProt P00735); assay: thrombin protease inhibitors – biochemical, fluorescence polarization, uHTS hits, dose response (AID 602369); format: functional
[4] = target: T4, Small ubiquitin-related modifier 1 (Homo sapiens, UniProt P63165); assay: SUMO1 protein interaction blockers, potency – biochemical, fluorescence polarization, uHTS hits, dose response (AID 624382); format: functional; conditions: read-out: IC50_Mean
T4 sequence (P63165 whole entry): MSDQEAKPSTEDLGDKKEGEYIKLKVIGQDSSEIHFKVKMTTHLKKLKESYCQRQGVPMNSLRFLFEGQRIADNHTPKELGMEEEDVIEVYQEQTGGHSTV

[5] = target: T2, Dual specificity protein phosphatase 3; assay: VHR1 phosphatase inhibitors, biochemical (AID 1878)
[6] = target: T4, Small ubiquitin-related modifier 1; assay: SUMO1 protein-protein binding blockers, potency – biochemical, FRET, dose response (AID 624383); format: functional; conditions: read-out: IC50_Mean
[7] = target: 26S proteasome non-ATPase regulatory subunit 14 (Homo sapiens, UniProt O00487); assay: inhibition of proteasome subunit RPN11 – biochemical, fluorescence polarization, uHTS hits, confirmation (AID 602368); format: functional
26S proteasome non-ATPase regulatory subunit 14, sequence (O00487 whole entry): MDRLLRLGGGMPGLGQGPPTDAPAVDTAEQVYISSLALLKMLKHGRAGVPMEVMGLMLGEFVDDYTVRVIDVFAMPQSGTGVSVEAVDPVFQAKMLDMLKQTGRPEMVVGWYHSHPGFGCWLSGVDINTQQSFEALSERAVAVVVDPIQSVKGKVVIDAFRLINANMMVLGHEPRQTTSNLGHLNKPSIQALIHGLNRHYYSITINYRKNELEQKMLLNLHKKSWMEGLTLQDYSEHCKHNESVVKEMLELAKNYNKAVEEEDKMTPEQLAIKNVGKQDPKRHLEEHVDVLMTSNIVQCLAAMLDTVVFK

HEK293 = assay: membrane integrity loss in HEK cells – cell-based, fluorescence, cytotoxicity control for IDE activator project, dose response (AID 588440); format: functional; conditions: Homo sapiens;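 also: cytotoxicity by LDH release measuring loss of membrane integrity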
Protein RecA = target: T5, Protein RecA (Mycobacterium tuberculosis, UniProt P9WHJ3); assay: Fluorescence Cell-Free Homogeneous Dose Retest to Identify Inhibitors of RecA-Intein Splicing Activity. [Related pubchem assays (depositor defined):AID2097, AID2223, AID489010, AID492950]; format: functional
T5 sequence (P9WHJ3 whole entry): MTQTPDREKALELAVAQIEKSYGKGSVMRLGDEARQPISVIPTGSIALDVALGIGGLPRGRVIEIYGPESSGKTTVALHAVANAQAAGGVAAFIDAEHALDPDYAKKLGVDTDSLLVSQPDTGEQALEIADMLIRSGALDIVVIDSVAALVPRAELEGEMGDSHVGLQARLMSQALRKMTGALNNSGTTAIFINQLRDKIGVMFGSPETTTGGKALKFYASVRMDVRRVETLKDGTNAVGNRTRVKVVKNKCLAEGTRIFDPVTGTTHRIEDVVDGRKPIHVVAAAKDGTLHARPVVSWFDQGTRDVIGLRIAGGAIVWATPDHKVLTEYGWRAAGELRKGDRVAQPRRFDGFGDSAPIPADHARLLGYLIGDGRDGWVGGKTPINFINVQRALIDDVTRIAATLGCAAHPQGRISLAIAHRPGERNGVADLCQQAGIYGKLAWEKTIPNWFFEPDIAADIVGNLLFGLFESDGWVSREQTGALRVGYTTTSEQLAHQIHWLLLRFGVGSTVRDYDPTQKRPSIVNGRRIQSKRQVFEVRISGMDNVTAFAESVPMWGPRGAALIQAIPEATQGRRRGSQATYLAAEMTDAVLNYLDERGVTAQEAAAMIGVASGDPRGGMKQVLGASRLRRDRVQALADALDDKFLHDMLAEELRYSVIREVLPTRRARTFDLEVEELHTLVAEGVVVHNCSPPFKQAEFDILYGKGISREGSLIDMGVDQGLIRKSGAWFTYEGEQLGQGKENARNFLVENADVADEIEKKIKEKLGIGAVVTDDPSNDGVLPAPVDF

[8] = inhibition of ARNT PAS-B/TACC3 complex formation – biochemical, AlphaScreen, cherry-picked samples, confirmation (AID 651703); format: functional, Homo sapiens;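 also: His-tagged ARNT PAS-B domain paired with GST-TACC3 E629A dimer coactivator fragment; potency of inhibitors that break up the complex and lower AlphaScreen signal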

## C=CCn1c(NC(=O)c2ccccc2Cl)c(C#N)c2nc3ccccc3nc21
[1]
  IC50: > 128 µM (inactive)

## CCOC(=O)c1sc2nc3c(SCC(=O)O)cc(C(=O)c4ccccc4O)cn3c(=O)c2c1C
[2]
  IC50: 0.549 µM (active)
[3]
  IC50: 14.8 µM (active)
Prothrombin
  IC50: 56.6 µM (active)
[4]
  IC50: > 66.6 µM (inactive)
[5]
  IC50: 3.69 µM (active)
[6]
  IC50: 6.2 µM (active)
[7]
  IC50: 6.79 µM (active)

## O=c1oc2c(O)cccc2cc1-c1nc2ccccc2[nH]1
HEK293
  IC50: > 89.3 µM (inactive)

## CCOC(=O)c1ccc(Nc2cc3ccccc3c(O)n2)cc1
Protein RecA
  EC50: 9.12 µM (active)
[8]
  AC50: 84.2 µM (active)

Source: ChEMBL document CHEMBL1201862, “PubChem BioAssay data set” (2004)
